Experimental data as given in ChEMBL document CHEMBL3085700 (J Med Chem, 2013).
The source made the active and inactive calls. No cut-off for these calls is given here.

Legend:
Monoglyceride lipase = molecular target: T1, Monoglyceride lipase (Homo sapiens, UniProt Q99685); test: Inhibition of human recombinant MAGL overexpressed in HEK cells using 2-AG as substrate preincubated for 10 mins before substrate addition measured after 10 mins by HPLC analysis; assay type: cell-based, HEK293
T1 sequence (Q99685 whole entry): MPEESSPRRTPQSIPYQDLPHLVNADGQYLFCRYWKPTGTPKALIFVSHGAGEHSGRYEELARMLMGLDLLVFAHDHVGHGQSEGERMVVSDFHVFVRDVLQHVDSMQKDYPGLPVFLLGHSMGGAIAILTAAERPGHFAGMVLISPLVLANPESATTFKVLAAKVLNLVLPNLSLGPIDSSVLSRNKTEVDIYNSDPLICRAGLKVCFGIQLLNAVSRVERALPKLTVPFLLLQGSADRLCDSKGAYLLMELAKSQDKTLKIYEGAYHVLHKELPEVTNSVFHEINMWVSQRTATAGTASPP

[1] = molecular target: T2, Monoacylglycerol lipase ABHD6 (Homo sapiens) (UniProt Q9BV23); test: Inhibition of human ABHD6 overexpressed in HEK293 cells assessed as 2-AG hydrolysis at 1 uM by fluorescent glycerol assay; assay type: cell-based
T2 sequence (whole entry): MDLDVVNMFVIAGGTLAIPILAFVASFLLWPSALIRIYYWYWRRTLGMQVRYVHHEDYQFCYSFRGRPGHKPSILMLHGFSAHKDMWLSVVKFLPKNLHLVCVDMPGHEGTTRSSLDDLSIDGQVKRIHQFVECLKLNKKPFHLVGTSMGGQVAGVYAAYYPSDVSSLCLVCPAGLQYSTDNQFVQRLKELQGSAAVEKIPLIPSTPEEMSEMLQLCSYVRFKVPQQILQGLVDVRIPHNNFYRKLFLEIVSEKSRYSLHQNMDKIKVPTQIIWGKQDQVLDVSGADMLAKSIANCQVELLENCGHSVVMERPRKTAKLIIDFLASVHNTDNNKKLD

[2] = molecular target: T3, Lysophosphatidylserine lipase ABHD12 (Homo sapiens) (UniProt Q8N2K0); test: Inhibition of human ABHD12 overexpressed in HEK293 cells assessed as 2-AG hydrolysis at 1 uM by fluorescent glycerol assay; assay type: cell-based
T3 sequence (whole entry): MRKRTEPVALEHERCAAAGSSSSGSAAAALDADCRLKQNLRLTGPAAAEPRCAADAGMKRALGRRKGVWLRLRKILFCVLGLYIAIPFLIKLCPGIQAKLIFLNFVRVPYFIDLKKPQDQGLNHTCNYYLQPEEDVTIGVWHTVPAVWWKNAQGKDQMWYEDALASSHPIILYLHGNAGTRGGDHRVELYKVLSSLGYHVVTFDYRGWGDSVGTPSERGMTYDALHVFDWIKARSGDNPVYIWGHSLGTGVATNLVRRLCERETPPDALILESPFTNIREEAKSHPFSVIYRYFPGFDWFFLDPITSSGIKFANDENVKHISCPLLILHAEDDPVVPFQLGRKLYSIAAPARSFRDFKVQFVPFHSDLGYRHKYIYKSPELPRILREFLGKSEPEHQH

[3] = molecular target: T4, Fatty-acid amide hydrolase 1 (Homo sapiens, UniProt O00519); test: Inhibition of human recombinant FAAH overexpressed in African green monkey COS7 cells using [3H]-anandamide as substrate preincubated for 10 mins before substrate addition measured after 10 mins by liquid scintillation counting analysis; assay type: cell-based, COS-7
T4 sequence (O00519 whole entry): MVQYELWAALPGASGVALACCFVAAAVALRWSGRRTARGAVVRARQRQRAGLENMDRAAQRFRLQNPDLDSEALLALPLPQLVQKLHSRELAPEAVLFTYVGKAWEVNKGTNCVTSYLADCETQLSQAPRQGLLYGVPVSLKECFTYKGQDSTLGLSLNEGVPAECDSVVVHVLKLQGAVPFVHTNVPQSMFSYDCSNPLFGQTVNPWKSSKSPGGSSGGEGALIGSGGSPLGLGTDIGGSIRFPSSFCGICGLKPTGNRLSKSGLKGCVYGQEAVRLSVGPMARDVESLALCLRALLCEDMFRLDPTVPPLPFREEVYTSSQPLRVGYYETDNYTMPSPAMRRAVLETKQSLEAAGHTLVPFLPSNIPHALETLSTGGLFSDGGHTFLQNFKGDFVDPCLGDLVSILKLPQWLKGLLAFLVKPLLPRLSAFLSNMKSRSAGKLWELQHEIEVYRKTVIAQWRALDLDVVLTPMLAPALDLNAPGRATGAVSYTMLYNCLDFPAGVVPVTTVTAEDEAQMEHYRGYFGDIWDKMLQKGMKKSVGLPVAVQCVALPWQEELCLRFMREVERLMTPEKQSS

[4] = molecular target: T5, Monoglyceride lipase (Homo sapiens) (UniProt Q99685); test: Inhibition of human recombinant MAGL overexpressed in HEK cells using 2-AG as substrate at 10 uM preincubated for 10 mins before substrate addition measured after 10 mins by HPLC analysis relative to control; assay type: cell-based; conditions: HEK293
T5 sequence (whole entry): T1 sequence (Q99685 whole entry)

[5] = molecular target: T6, Fatty-acid amide hydrolase 1 (Homo sapiens) (UniProt O00519); test: Inhibition of human recombinant FAAH overexpressed in African green monkey COS7 cells using [3H]-anandamide as substrate at 10 uM preincubated for 10 mins before substrate addition measured after 10 mins by liquid scintillation counting analysis relative to control; assay type: cell-based; conditions: COS-7
T6 sequence (whole entry): T4 sequence (O00519 whole entry)

[6] = molecular target: T7, Prostaglandin G/H synthase 1 (Ovis aries) (UniProt P05979); test: Inhibition of ovine COX-1 using arachidonic acid as substrate assessed as oxygen consumption at 30 uM measured within 10 to 50 secs
T7 sequence (whole entry): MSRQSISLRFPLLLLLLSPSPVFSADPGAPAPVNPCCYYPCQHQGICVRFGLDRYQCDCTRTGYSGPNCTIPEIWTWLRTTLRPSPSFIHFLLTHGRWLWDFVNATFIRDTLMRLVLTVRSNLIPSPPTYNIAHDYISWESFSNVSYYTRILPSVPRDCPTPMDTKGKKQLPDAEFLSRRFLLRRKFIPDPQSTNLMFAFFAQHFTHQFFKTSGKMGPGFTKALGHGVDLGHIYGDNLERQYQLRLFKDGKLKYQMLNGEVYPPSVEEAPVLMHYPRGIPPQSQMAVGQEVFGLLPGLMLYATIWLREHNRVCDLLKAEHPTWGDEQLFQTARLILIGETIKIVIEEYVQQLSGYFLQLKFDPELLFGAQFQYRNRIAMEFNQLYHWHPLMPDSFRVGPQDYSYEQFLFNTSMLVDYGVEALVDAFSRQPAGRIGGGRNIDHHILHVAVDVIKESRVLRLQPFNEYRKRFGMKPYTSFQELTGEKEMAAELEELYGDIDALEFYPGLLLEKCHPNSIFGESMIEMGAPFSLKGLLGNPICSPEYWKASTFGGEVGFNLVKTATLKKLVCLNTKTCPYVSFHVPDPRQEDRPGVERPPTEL

[7] = molecular target: T6, Fatty-acid amide hydrolase 1 (Homo sapiens); test: Inhibition of human recombinant FAAH overexpressed in African green monkey COS7 cells using [3H]-anandamide as substrate at 10 to 300 uM preincubated for 10 to 60 mins by liquid scintillation counting analysis; assay type: cell-based; conditions: COS-7
[8] = molecular target: T6, Fatty-acid amide hydrolase 1 (Homo sapiens); test: Noncompetitive inhibition of human recombinant FAAH overexpressed in African green monkey COS7 cells using anandamide as substrate assessed as decrease in Vmax of substrate hydrolysis preincubated for 10 mins before substrate addition measured after 10 mins by HPLC analysis; conditions: COS-7
[9] = molecular target: Cannabinoid receptor 2 (Homo sapiens) (UniProt P34972); test: Agonist activity at human CB2 receptor expressed in CHO cell membranes up to 10 uM incubated for 10 mins prior to testing by [35S]GTPgammaS binding assay; assay type: functional
[10] = molecular target: Cannabinoid receptor 1 (Rattus norvegicus) (UniProt P20272); test: Agonist activity at CB1 receptor in rat cerebellar membranes up to 10 uM incubated for 10 mins prior to testing by [35S]GTPgammaS binding assay; assay type: functional, cell membranes; conditions: Cerebellum, Membrane
[11] = molecular target: T6, Fatty-acid amide hydrolase 1 (Homo sapiens); test: Reversible inhibition of human recombinant FAAH overexpressed in African green monkey COS7 cells using […] as substrate assessed as recovery of enzyme activity at 20 x IC50 preincubated for 60 mins followed by 500 fold dilution measured after 10 mins by HPLC analysis; assay type: cell-based; conditions: COS-7
[12] = molecular target: Cannabinoid receptor 1 (Rattus norvegicus) (UniProt P20272); test: Antagonist activity at CB1 receptor in rat cerebellar membranes assessed as HU210-evoked response up to 10 uM incubated for 10 mins prior to testing by [35S]GTPgammaS binding assay; assay type: functional, cell membranes; conditions: Cerebellum, Membrane
[13] = molecular target: T6, Fatty-acid amide hydrolase 1 (Homo sapiens); test: Inhibition of human recombinant FAAH overexpressed in African green monkey COS7 cells using [3H]-anandamide as substrate at 3 to 30 uM preincubated for 10 to 60 mins by liquid scintillation counting analysis; assay type: cell-based; conditions: COS-7
[14] = molecular target: T6, Fatty-acid amide hydrolase 1 (Homo sapiens); test: Inhibition of human recombinant FAAH overexpressed in African green monkey COS7 cells using [3H]-anandamide as substrate at 10 to 100 uM preincubated for 10 to 60 mins by liquid scintillation counting analysis; assay type: cell-based; conditions: COS-7

Sequence of Cannabinoid receptor 1 (Rattus norvegicus) (P20272 whole entry): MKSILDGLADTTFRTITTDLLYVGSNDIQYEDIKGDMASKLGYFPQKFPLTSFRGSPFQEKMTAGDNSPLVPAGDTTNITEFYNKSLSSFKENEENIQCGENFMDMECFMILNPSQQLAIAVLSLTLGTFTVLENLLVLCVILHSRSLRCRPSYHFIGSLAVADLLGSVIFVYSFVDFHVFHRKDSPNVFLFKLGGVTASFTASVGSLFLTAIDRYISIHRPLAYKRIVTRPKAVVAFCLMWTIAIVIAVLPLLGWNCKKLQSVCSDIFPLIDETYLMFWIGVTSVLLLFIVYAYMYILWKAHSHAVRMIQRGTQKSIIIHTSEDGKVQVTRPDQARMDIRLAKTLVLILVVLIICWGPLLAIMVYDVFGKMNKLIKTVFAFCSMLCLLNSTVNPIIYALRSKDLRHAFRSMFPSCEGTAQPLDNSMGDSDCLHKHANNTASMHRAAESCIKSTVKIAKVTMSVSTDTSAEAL
Sequence of Cannabinoid receptor 2 (Homo sapiens) (P34972 whole entry): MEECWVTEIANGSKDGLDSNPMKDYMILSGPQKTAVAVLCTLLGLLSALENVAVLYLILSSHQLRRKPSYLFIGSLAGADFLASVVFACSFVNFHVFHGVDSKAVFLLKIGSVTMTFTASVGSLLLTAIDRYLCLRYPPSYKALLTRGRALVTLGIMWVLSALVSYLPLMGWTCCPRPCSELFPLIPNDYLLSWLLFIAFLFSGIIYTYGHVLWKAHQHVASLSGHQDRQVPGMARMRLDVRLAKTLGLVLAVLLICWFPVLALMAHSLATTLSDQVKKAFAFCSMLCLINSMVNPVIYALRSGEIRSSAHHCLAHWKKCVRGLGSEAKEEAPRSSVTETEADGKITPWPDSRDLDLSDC

| SMILES | inhibition [1] | inhibition [2] | IC50 ([3]; read-out: pIC50 (converted)) [nM] | inhibition [4] | IC50 ([3]; read-out: IC50) [nM] | also measured |
| --- | --- | --- | --- | --- | --- | --- |
| COc1nn(Cc2ccc(Oc3ccccc3)cc2)c(=O)o1 | inactive | inactive | 100 |  |  | IC50 (Monoglyceride lipase; read-out: IC50): 400 nM; IC50 ([3]; cos-7, read-out: IC50): 100 nM |
| COc1nn(C(c2ccccc2)c2ccccc2)c(=O)o1 | inactive | inactive |  | inactive |  | inhibition [5]: inactive |
| COc1nn(Cc2ccccc2Oc2ccccc2)c(=O)o1 | inactive | inactive | 6310 | inactive | 6300 |  |
| CC(C(=O)O)c1ccc(-c2ccccc2)c(F)c1 (stereo not given) |  |  |  |  |  | inhibition [6]: Active |
| COc1nn(Cc2ccc(N(c3ccccc3)c3ccccc3)cc2)c(=O)o1 | inactive | inactive | 457 |  | 470 | IC50 (Monoglyceride lipase; read-out: IC50): 260 nM |
| COc1nn(Cc2ccc(-c3ccccc3)cc2)c(=O)o1 | inactive | inactive | 162 |  | 160 | IC50 (Monoglyceride lipase; read-out: IC50): 1600 nM |
| COc1nn(C2CCCCC2)c(=O)o1 | inactive | inactive |  | inactive |  | inhibition [5]: 40% |
| COc1nn([C@@H](C)c2ccc(-c3ccccc3)cc2)c(=O)o1 | inactive | inactive | 23.4 | 18% | 23 | inhibition [7]: Active; inhibition [8]: Dose-dependent effect; Activity [9]: inactive; Activity [10]: inactive; inhibition [11]: Active; Activity [12]: inactive; inhibition [13]: Active; inhibition [14]: Active |
| COc1nn(C(C)c2cccc(-c3ccccc3)c2)c(=O)o1 (stereo not given) | inactive | inactive | 1170 | 42% | 1200 |  |
| COc1nn(C(C)c2ccc(CC(C)C)cc2)c(=O)o1 (racemic) | inactive | inactive | 22.9 | 48% | 23 |  |
| COc1nn([C@H](C)c2ccc(-c3ccccc3)cc2)c(=O)o1 | inactive | inactive | 2880 | 49% | 3000 |  |
| COc1nn([C@@H](C)c2ccc(N(c3ccccc3)c3ccccc3)cc2)c(=O)o1 | inactive | inactive | 100 | 41% | 98 | inhibition [7]: Active; inhibition [8]: Dose-dependent effect; inhibition [11]: Active; inhibition [13]: Active; inhibition [14]: Active |
| COc1nn(C(C)c2ccc(Oc3ccccc3)cc2)c(=O)o1 (stereo not given) | inactive | inactive | 33.9 |  | 34 | IC50 (Monoglyceride lipase; read-out: IC50): 2000 nM |
| COc1nn(C(C)c2ccccc2)c(=O)o1 (stereo not given) | inactive | inactive | 6030 | inactive | 6000 |  |
| COc1nn([C@H](C)c2ccc(N(c3ccccc3)c3ccccc3)cc2)c(=O)o1 | inactive | inactive | 6170 |  | 6300 | IC50 (Monoglyceride lipase; read-out: IC50): 350 nM; IC50 (Monoglyceride lipase; read-out: pIC50 (converted)): 339 nM |
| COc1nn(C(C)c2ccc(-c3ccccc3)cc2)c(=O)o1 (racemic) | inactive | inactive | 46.8 | 34% | 48 |  |
| COc1nn(C(C)C)c(=O)o1 | inactive | inactive |  | 6% |  | inhibition [5]: 12% |
| COc1nn(Cc2cccc(Oc3ccccc3)c2)c(=O)o1 | inactive | inactive | 977 | 15% | 980 |  |
| COc1nn(Cc2ccc(CC(C)C)cc2)c(=O)o1 | inactive | inactive | 89.1 |  | 91 | IC50 (Monoglyceride lipase; read-out: IC50): 1300 nM |
| COc1nn(Cc2ccccc2)c(=O)o1 | inactive | inactive |  | inactive |  | inhibition [5]: inactive |
| COc1nn(Cc2cccc(-c3ccccc3)c2)c(=O)o1 | inactive | inactive |  | 32% |  | inhibition [5]: 46% |
| COc1nn(C(C)c2cccc(Oc3ccccc3)c2)c(=O)o1 (stereo not given) | inactive | inactive | 5250 | 14% | 5200 |  |
